The text below walks through data of patent publication US10981900B2, “Spiro compound and use thereof” (MEDSHINE DISCOVERY INC., priority 2017, dated 2021).

For one data set, the target named is T1, S1P1 receptor (Homo sapiens, UniProt P21453).
T1 construct: expressed in transfected cells
Put plainly: S1P1 receptor agonistic activity assay (PathHunter cell strain, chemiluminescent signal detection). It is filed as cell-based. To be noted: PathHunter cells, agonist mode, 37° C. for 90-180 minutes. As for the experimental part:
1. A PathHunter cell strain was thawed according to standard procedures;
2. The cell was seeded in 20 μl 384-well microplates and incubated at 37° C. for an appropriate time.
1. For an agonist assay, the cell was incubated with the sample to be tested to initiate a reaction;
2. The stock to be tested is diluted 5 folds to be a buffer solution;
3. The 5-fold diluted solution (5 μL) was added to the cells and incubated at 37° C. for 90-180 minutes. The solvent concentration was 1%.
1. 12.5 μL or 15 μL of PathHunter detection reagent (50 vol. %) was added in one portion and then incubated for 1 hour at room temperature to generate a detection signal;
2. The microplate was read using a PerkinElmer Envision™ instrument for chemiluminescent signal detection.
1. Compound activity analysis was performed using a CBIS Data Analysis Kit;
2. Calculation formula: % activity=100%×(average RLU of sample to be test-average RLU of solvents)/(average maximum control ligand−average RLU of solvents)

The nature of data set [1]: Evaluation of compounds' pharmacokinetics in SD rats in vivo (intravenous injection and oral administration). Also noted: species or system Sprague Dawley rats. The conditions noted are these: male, Sprague-Dawley, rat, plasma, single intravenous injection and oral administration; for AUC: read-out: Concentration integral AUC; for half-life: read-out: Half life T1/2 (converted); for clearance: intravenous, read-out: Clearance; for bioavailability: oral, read-out: Bioavailability F. The method, then: Objective: To test the pharmacokinetics of compounds in SD rats in vivo.
Sprague Dawley rats (male, 200-300 g, 7-9 weeks old, Shanghai Slack)
The pharmacokinetics profile of the compound in rodent after intravenous injection and oral administrations was tested using a standard protocol. In the assay, the candidate compound was formulated into a clear solution, and was given to the rats through a single intravenous injection and oral administration. The vehicles for the intravenous injection and oral administration were an aqueous hydroxypropyl β-cyclodextrin solution or dimethyl sulfoxide in aqueous PEG400 solution in a proper proportion. The whole blood samples were collected within 24 hours, centrifuged at 3000 g for 15 minutes, and plasma samples were obtained by separating the supernatant. 4 times volume of acetonitrile solution containing an internal standard was added to precipitate proteins. After centrifugation, the supernatant was collected, to which an equal volume of water was added, and further centrifuged to collect the supernatant. The LC-MS/MS method was used to quantitatively analyze the plasma concentration, and the pharmacokinetics parameters, such as peak concentration, peak time, clearance rate, half-life, area under the curve, and bioavailability were calculated.

Where two headings read alike, the source gives them in different places.

T1 sequence (P21453 whole entry): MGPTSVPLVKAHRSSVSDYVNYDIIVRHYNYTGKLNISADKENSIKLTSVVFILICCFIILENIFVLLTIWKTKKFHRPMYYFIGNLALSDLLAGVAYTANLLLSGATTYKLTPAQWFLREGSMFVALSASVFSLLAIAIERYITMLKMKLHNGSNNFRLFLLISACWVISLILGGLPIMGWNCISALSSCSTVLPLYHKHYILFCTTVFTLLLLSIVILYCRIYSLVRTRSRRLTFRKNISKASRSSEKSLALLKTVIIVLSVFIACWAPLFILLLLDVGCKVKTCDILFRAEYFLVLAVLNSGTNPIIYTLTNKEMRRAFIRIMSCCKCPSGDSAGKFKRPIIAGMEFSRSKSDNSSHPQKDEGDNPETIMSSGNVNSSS

Regarding `CC(C)Oc1ccc(-c2nc(-c3cccc4c3CCC43CC(=O)N(CCO)C3)no2)cc1C(F)F` (stereo not shown) [Example 9], at S1P1 receptor, the concentration giving a half-maximal response (EC50) is at most 10 nM. In addition, in data set [1] (2 mg/kg, 2 mpk), the AUC was found to be 4.35 µM·h, the half-life was 99.3 h, the clearance was 2.52 mL/min/kg and the bioavailability was determined as 89.4%.

Turning to `CC(C)Oc1ccc(-c2nc(-c3cccc4c3CCC43CC(=O)N(CCO)C3)no2)cc1C#N` (single isomer, unassigned) [Example 21 isomer 1], at S1P1 receptor, the concentration giving a half-maximal response (EC50) is at most 10 nM. In addition, in data set [1] (3 mg/kg, 3 mpk), the AUC was determined as 12.6 µM·h, the half-life is 3.02 h, the clearance was 8.65 mL/min/kg and the bioavailability was 100%.
